# Legend:
# Type in all cases: cell-based
# [1] = system: Pseudomonas aeruginosa 15442; assay: Log (Growth) efficacy in aerobic conditions, non-SRB bacteria
# Protocol: (§1) 24-hour cultures were made of ATCC Escherichia coli 8739, Pseudomonas aeruginosa 15442, Enterobacter aerogenes 13048, and Klebsiella pneumoniae 13883. The cultures were prepared by taking a loop of a pure bacterial colony and inoculating 10 mL of TSB. These were grown for 24 hours at 30° C.
# (§2) Following the 24-hour incubation, 600 microliters (μL) were taken from each culture and optical density (OD) was measured using a Thermofisher Spectronic 200 Spectrophotometer at 600 nm. Each culture was diluted to 0.05 OD600 in fresh Phosphate Buffered Saline (PBS). Using these cultures, two deep well plates were prepared. Edge wells were not used due to their inherent variability and evaporation of the media. Each of the components were added at their respective concentrations for a final volume of […] per well. In Table 8, the concentrations of the compound C1 used for the experiments are listed. Each experiment was done with at least three replicates for different treatments and non-treatment controls. Plates were then sealed with a titer-top and incubated in an incubator at 30° C.
# (§3) Enumerations were done at each time point, which included 0 hour, 1 hour, 4 hours and 24 hours. Enumeration plates were made to determine the log growth in each dosed sample. For this process, enumeration plates were prepared by adding 180 μL fresh TSB. 20 μL was taken from each well of the challenge plates and transferred to the enumeration plates using a 20-200 μL multichannel pipette. Enumeration plates were mixed three times using the multichannel pipette and serial diluted down the plate tenfold (20 μL into 180 μL). This serial dilution process was repeated for all challenge plate rows giving a total of 6 enumeration plates. These enumeration plates were read after 24-hours and by counting the number of turbid wells in a row.
# [2] = system: Klebsiella pneumoniae 13883; assay: as above
# Protocol: as §1, §2, §3
# [3] = system: Enterobacter aerogenes 13048; assay: as above
# Protocol: as §1, §2, §3
# [4] = system: sulfate reducing bacteria; assay: Efficacy in inhibiting H2S production from sulfate reducing bacteria; settings: anaerobic conditions
# Protocol: To understand the hydrogen sulfide inhibition efficacy of the N-hydroxycarboxamide compounds of the present invention, several compounds were tested. Some compounds that can be used in this H2S inhibiting composition are disclosed in Table 2. For the testing procedures, the compounds were dissolved in DMSO, resulting in a stock solution of about 8000-100000 ppm, which was subsequently diluted in 96-well plates or 10 mL serum vials containing media and selected culture to give varying concentrations from 0.09 to 1000 ppm of the compounds in final solution for efficacy testing.
# Strains of commonly found bacteria were used for testing the efficacy of the compounds, viz. Desulfovibrio alaskensis, Desulfovibrio longus and Desulfovibrio gabonensis. Media for the cultures was also prepared by using a standard method. The cultures were aseptically used and incubated under anaerobic conditions. Two well established methods were used for testing various compounds:
# The compounds C1, C12, C14, C15 and C16 were tested individually to understand each of their efficacies in inhibiting the H2S production from sulfate reducing bacteria, under standard temperature and pressure conditions. The efficacy of compounds C14 and C15 against hydrogen sulfide production are disclosed in Example 1, Tables 6 and 7.
smiles,measurement,setting,value
O=C(CN1C(=O)c2cccc3cccc(c23)C1=O)NO [C1],Log (Growth),"[1]; 0 hours, 6.25 PPM",7.333
same,Log (Growth),"[1]; 0 hours, 12.5 PPM",7.667
same,Log (Growth),"[1]; 0 hours, 25 PPM",7.333
same,Log (Growth),"[1]; 0 hours, 50 PPM",7.667
same,Log (Growth),"[1]; 0 hours, 100 PPM",8.000
same,Log (Growth),"[1]; 0 hours, 200 PPM",7.667
same,Log (Growth),"[1]; 1 hour, 6.25 PPM",7.000
same,Log (Growth),"[1]; 1 hour, 12.5 PPM",8.000
same,Log (Growth),"[1]; 1 hour, 25 PPM",7.667
same,Log (Growth),"[1]; 1 hour, 50 PPM",7.333
same,Log (Growth),"[1]; 1 hour, 100 PPM",8.000
same,Log (Growth),"[1]; 1 hour, 200 PPM",7.000
same,Log (Growth),"[1]; 4 hours, 6.25 PPM",7.000
same,Log (Growth),"[1]; 4 hours, 12.5 PPM",8.000
same,Log (Growth),"[1]; 4 hours, 25 PPM",7.000
same,Log (Growth),"[1]; 4 hours, 50 PPM",7.000
same,Log (Growth),"[1]; 4 hours, 100 PPM",7.667
same,Log (Growth),"[1]; 4 hours, 200 PPM",7.000
same,Log (Growth),"[1]; 24 hours, 6.25 PPM",7.333
same,Log (Growth),"[1]; 24 hours, 12.5 PPM",7.000
same,Log (Growth),"[1]; 24 hours, 25 PPM",7.333
same,Log (Growth),"[1]; 24 hours, 50 PPM",7.667
same,Log (Growth),"[1]; 24 hours, 100 PPM",8.000
same,Log (Growth),"[1]; 24 hours, 200 PPM",7.667
same,Log (Growth),"[2]; 0 hours, 6.25 PPM",7.667
same,Log (Growth),"[2]; 0 hours, 12.5 PPM",6.333
same,Log (Growth),"[2]; 0 hours, 25 PPM",6.667
same,Log (Growth),"[2]; 0 hours, 50 PPM",6.667
same,Log (Growth),"[2]; 0 hours, 100 PPM",6.667
same,Log (Growth),"[2]; 0 hours, 200 PPM",6.333
same,Log (Growth),"[2]; 1 hour, 6.25 PPM",6.333
same,Log (Growth),"[2]; 1 hour, 12.5 PPM",8.000
same,Log (Growth),"[2]; 1 hour, 25 PPM",6.333
same,Log (Growth),"[2]; 1 hour, 50 PPM",6.000
same,Log (Growth),"[2]; 1 hour, 100 PPM",7.333
same,Log (Growth),"[2]; 1 hour, 200 PPM",8.000
same,Log (Growth),"[2]; 4 hours, 6.25 PPM",7.667
same,Log (Growth),"[2]; 4 hours, 12.5 PPM",6.667
same,Log (Growth),"[2]; 4 hours, 25 PPM",6.667
same,Log (Growth),"[2]; 4 hours, 50 PPM",6.667
same,Log (Growth),"[2]; 4 hours, 100 PPM",7.000
same,Log (Growth),"[2]; 4 hours, 200 PPM",7.000
same,Log (Growth),"[2]; 24 hours, 6.25 PPM",7.333
same,Log (Growth),"[2]; 24 hours, 12.5 PPM",7.333
same,Log (Growth),"[2]; 24 hours, 25 PPM",6.000
same,Log (Growth),"[2]; 24 hours, 50 PPM",6.000
same,Log (Growth),"[2]; 24 hours, 100 PPM",7.000
same,Log (Growth),"[2]; 24 hours, 200 PPM",7.000
same,Log (Growth),"[3]; 0 hours, 6.25 PPM",7.667
same,Log (Growth),"[3]; 0 hours, 12.5 PPM",8.000
same,Log (Growth),"[3]; 0 hours, 25 PPM",7.333
same,Log (Growth),"[3]; 0 hours, 50 PPM",7.667
same,Log (Growth),"[3]; 0 hours, 100 PPM",7.000
same,Log (Growth),"[3]; 0 hours, 200 PPM",7.667
same,Log (Growth),"[3]; 1 hour, 6.25 PPM",7.667
same,Log (Growth),"[3]; 1 hour, 12.5 PPM",8.000
same,Log (Growth),"[3]; 1 hour, 25 PPM",7.333
same,Log (Growth),"[3]; 1 hour, 50 PPM",7.000
same,Log (Growth),"[3]; 1 hour, 100 PPM",7.333
same,Log (Growth),"[3]; 1 hour, 200 PPM",8.000
same,Log (Growth),"[3]; 4 hours, 6.25 PPM",7.667
same,Log (Growth),"[3]; 4 hours, 12.5 PPM",7.667
same,Log (Growth),"[3]; 4 hours, 25 PPM",7.667
same,Log (Growth),"[3]; 4 hours, 50 PPM",7.333
same,Log (Growth),"[3]; 4 hours, 100 PPM",8.000
same,Log (Growth),"[3]; 4 hours, 200 PPM",7.000
same,Log (Growth),"[3]; 24 hours, 6.25 PPM",6.667
same,Log (Growth),"[3]; 24 hours, 12.5 PPM",7.333
same,Log (Growth),"[3]; 24 hours, 25 PPM",7.000
same,Log (Growth),"[3]; 24 hours, 50 PPM",6.667
same,Log (Growth),"[3]; 24 hours, 100 PPM",7.000
same,Log (Growth),"[3]; 24 hours, 200 PPM",7.333
same,efficacy for inhibiting hydrogen sulfide production,[4],highest efficacy

# — US20230183640A1, “METABOLIC INHIBITORS WITH EFFICACY FOR INHIBITING SULFIDE PRODUCTION IN HARSH ENVIRONMENTS” (MC (US) 3 LLC, priority 2020, published 2023)
